The test system of one assay is BuChE. As to conditions: cited from earlier work.
Assay [1] has as its system HT-22 murine hippocampal cell line. Put plainly: cells. The format is cell-based. The settings on record: glutamate 5 mM, tested at 1, 5, 10 and 25 µM. Here is the method:
The neuroprotective properties of the compounds were assessed using the HT-22 murine hippocampal cell line. This is an immortalized cell line which has become widely used in recent years to study oxidative stress induced neuronal cell death. The cell line lacks ionotropic glutamate receptors but is sensitive to glutamate cytotoxicity via non-receptor mediated pathway(s) that are to a significant extent propagated by reactive oxygen species. The cell line appeared to be a good cellular model for measuring an anti-oxidant mediated neuroprotective in vitro effect of the compounds [26, 27, 28].
Test compounds in DMSO solution (0.1%) were added to HT-22 cell culture for (24 h), using four repeats in three independent experiments. […] Lipoic acid and ferulic acid were also non-toxic in the same concentration range. Next, the neuronal cell culture was treated with glutamate (5 mM) which caused about 90% cell death as reflected in the MTT assay. Quercetin served as positive control and caused rescue of cell death to around 80% cell viability at 25 µM. Cells were co-treated with test compounds 7a–d and 8a–d at 1, 5, 10 and 25 µM in four repeats and three independent experiments. Lipoic and ferulic acid were tested in parallel experiments in the same concentration range. Lipoic acid was active in the range 10–25 µM but ferulic acid was not active (data not shown). […] The reasons for this unexpected variation in efficacy is not clear but may be due to (intra)cellular access.
This test was performed as reported before. Briefly, HT-22 cells were seeded in 96-well plates at a density of 5 × 10^3 per well and cultured for 24 h. Subsequently, cells were incubated for another 24 h either with medium or test compounds with potential cytoprotective activity either in the absence (to test for toxic effects) or the presence (to test for the protective potential against glutamate induced oxidative stress) of 5 mM glutamate. MTT solution (4 mg/mL in PBS) was diluted 1:10 with medium and the mixture was added to the wells after removal of the previous medium. The plates were then incubated for another 3 h. Then, the supernatant was removed and 100 µL of lysis buffer (10% SDS, pH 4.1) were added to the wells. Absorbance at 560 nm was determined on the next day using a multiwell plate photometer (Spectra Fluor Plus, Tecan, Crailsheim, Germany). The results of these cell viability assays were expressed as percentages relative to untreated control cells. All compounds were dissolved in DMSO and diluted with fresh medium, with the DMSO concentration always below 0.1% (v/v).
Data of all MTT tests were expressed as means ± SD of at least three independent experiments (in quadruplicates). Data were subjected to one-way ANOVA followed by Dunnett’s multiple comparison post-test using GraphPad Prism 5 Software. (Levels of significance ** p < 0.01; *** p < 0.001).

The next assay deals with human BuChE (Homo sapiens, UniProt P06276). Put plainly: Inhibitor kinetics, time dependence of BuChE carbamylation. The format is biochemical. The settings on record: r^2 > 0.99. As to the method:
Solutions of human BuChE were treated with 7a in the range of 1–50 µM. At successive time intervals, aliquots were removed and the carbamylation reaction stopped by dilution. Residual enzyme activity at each time point and each inhibitor concentration level was estimated by adding the sample to a solution containing butyrylthiocholine substrate.
In order to monitor enzyme carbamylation over time, a 96-well plate was used, with all assay mixtures being made up to a final concentration of 250 μL for monitoring of absorbance at 412 nm. At time 0, 150 μL of inhibitor, at various concentrations, was added to an equal volume of enzyme. Thereafter, at successive time points, 50 μL aliquots were removed from these wells and added to wells containing 200 μL DTNB and BTCI in phosphate buffer pH 8.0. Hydrolysis of substrate was monitored by examining the changes in absorbance in each well at 412 nm over the following 30 s. Negative controls were run alongside the test solutions to take account of non-enzymatic hydrolysis, while positive controls gauged the rate of the uninhibited reaction. At least two replicate wells were run for each concentration of inhibitor. Plots of percentage inhibition over time were prepared using GraphPad Prism 4.03. A first order inhibition constant, kobs was obtained for each concentration of inhibitor by non-linear regression using an exponential decay function.

The target in assay [2] is T1, BuChE purified from human plasma (Homo sapiens, UniProt P06276).
T1 construct: BuChE purified from human plasma; from tissue; host or cells: human plasma
T1 sequence (P06276 29-602): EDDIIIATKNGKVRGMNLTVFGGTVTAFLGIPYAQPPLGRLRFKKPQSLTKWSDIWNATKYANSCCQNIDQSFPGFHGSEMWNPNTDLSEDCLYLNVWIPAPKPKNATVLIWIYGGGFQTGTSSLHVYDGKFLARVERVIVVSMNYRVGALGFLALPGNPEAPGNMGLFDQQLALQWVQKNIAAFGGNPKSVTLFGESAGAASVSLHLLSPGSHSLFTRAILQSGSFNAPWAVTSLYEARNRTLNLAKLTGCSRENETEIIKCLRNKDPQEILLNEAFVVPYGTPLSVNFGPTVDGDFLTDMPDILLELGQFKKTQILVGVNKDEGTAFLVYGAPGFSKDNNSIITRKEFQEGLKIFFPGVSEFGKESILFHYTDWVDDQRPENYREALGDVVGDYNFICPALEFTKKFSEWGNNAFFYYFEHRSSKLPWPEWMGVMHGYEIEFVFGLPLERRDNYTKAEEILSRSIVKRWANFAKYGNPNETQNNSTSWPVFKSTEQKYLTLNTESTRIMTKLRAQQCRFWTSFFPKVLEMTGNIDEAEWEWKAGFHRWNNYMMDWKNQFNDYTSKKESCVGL
Put plainly: Ellman assay, BuChE inhibition. The format is biochemical. As to the method: (§1) Inhibitory activities of the isosorbide-2-carbamates bearing a lipoate ester (7a–d), a ferulate ester (8a–d) ester or 5-unsubstituted compounds (6a–d) was measured using the standard Ellman spectrophotometric method using AChE from electric eel or BuChE purified from human plasma with acetylthiocholine or butyrylthiocholine as appropriate (Table 1). […] These values are in the potency range of clinically used cholinesterase inhibitors. […] In most cases, it was not possible to achieve a maximal inhibition of AChE because the solubility threshold was lower than the concentration required for maximal inhibition. In previous studies, we noticed that phenyl carbamates of isosorbide are relatively weak inhibitors of BuChE compared with the benzyl and alkyl carbamates, but that AChE is relatively tolerant of isosorbide phenyl carbamates. We published a paper showing that isosorbide-2,5-diaryl esters are moderately potent substrate-inhibitors of AChE [25]. […] The effect of (appropriate) 5-ester substitution in the series of isosorbide compounds already published is to increase potency by promoting affinity in the pre-carbamylation state, reducing the pseudo Michaelis constant for the carbamate substrate (referred to as Kc in carbamylation literature). When the intrinsic affinity of the substrate carbamate is higher, there is a relatively greater proportion of the unimolecular E. carbamate complex. In the present case, the anti-oxidant ester functionality directly contributes to potency by increasing substrate affinity. […] Indeed, ester hydrolysis at the isosorbide C-5, which is slow, would produce the ferulic acid or lipoic acid byproduct.
(§2) Cholinesterase activity was measured using the Ellman spectrophotometric method. HuBuChE activity was measured in replicate samples using a 96-well plate reader. The total volume of test solution in each well was 250 μL. This consisted of 25 μL of plasma solution, 150 μL of phosphate buffer pH 8.0, 25 μL of DTNB solution (0.5 mM), and 25 μL of acetonitrile:distilled water (1:1). The 96-well plate was incubated for 30 min before 25 μL of butyrylthiocholine iodide (BTCI) solution (0.5 mM) was added, and the reaction was measured at 405 nm over 5 min using an Anthos bt2 plate reader. For the determination of AChE activity, 25 μL of electric eel AChE solution and 25 μL of acetylthiocholine iodide (ATCI) solution were used instead of the plasma solution and BTCI solution. For determination of enzyme inhibition, 25 μL of an inhibitor solution was added to the test solution instead of the acetonitrile:water (1:1) solution. Inhibitors were added 30 min before determination of remaining enzyme activity. IC50 values were calculated using GraphPad Prism 4.02 software (GraphPad Software Inc., La Jolla, CA, USA).
On the technique in general: Ellman's reagent forms a yellow product with free thiols.

In a further assay the target is T2, AChE from electric eel (Electrophorus electricus, UniProt O42275).
T2 construct: AChE from electric eel; from tissue
T2 sequence (O42275 24-633): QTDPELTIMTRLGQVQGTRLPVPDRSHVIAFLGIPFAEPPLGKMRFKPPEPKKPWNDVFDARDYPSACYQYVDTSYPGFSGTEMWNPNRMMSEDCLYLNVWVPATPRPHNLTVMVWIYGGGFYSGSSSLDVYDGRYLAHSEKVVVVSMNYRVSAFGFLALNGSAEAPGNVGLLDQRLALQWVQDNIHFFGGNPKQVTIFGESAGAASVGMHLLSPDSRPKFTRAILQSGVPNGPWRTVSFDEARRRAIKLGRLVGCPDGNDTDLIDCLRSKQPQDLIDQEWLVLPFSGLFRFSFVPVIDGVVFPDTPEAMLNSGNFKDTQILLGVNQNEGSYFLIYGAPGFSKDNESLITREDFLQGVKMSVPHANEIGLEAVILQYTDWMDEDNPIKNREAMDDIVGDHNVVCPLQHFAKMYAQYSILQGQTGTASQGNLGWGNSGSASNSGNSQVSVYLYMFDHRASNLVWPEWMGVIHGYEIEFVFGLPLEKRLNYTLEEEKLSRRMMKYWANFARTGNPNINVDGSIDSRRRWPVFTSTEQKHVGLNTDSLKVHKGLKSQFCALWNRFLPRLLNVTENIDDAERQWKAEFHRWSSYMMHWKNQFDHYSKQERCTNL
The assay can be described thus: Ellman assay, AChE inhibition. Type of assay: biochemical. As to conditions: 100 μM; n = 3; read-out: AChE %I at 100 μM. As to the method:
as §1, §2

SMILES strings stand for the structures. Where “and” joins values, the source holds several entries; their conditions need not be identical. Equal entries are not always repeated. Where two headings read alike, the source gives them in different places. Some results are limits rather than exact numbers.

Chain of human BuChE (P06276 29-602): as the sequence (P06276 29-602) above

Consider `O=C(NCc1ccccc1)O[C@H]1CO[C@H]2[C@@H]1OC[C@H]2OC(=O)c1ccccc1` [Compound 1], for which the concentration for half-maximal inhibition (IC50) (as a rule, the point on the concentration scale where inhibition reaches its midpoint) with BuChE (read-out: IC50 BuChE) was 4.3 nM.
In the case of `O=C(CCCCC1CCSS1)O[C@@H]1CO[C@H]2[C@@H]1OC[C@@H]2OC(=O)NCc1ccccc1` (some centres unmarked) [Compound 7a, Isosorbide-2-benzylcarbamate-5-lipoic acid ester], the “concentration range with neuroprotective effect” value in assay [1] is 5 to 25 µM and > 5 µM. Further, the “pseudo first order rate constant of BuChE inhibition” value on human BuChE (inhibitor 10 µM) is 0.068 min⁻¹; on human BuChE (inhibitor 50 µM), 0.198 min⁻¹. Besides, the Selectivity in assay [2] (IC50 AChE/IC50 BuChE, 100 µM used for AChE where % inhibition at 100 µM was <50%) was greater than 667. Moreover, the IC50 in assay [2] (inhibitor added 30 min before, n = 3, read-out: BChE IC50) was found to be 150 nM. The inhibition at 100 µM at AChE from electric eel stood at 30.8%.
For `O=C(NCc1ccccc1)OC1COC2C(OC(=O)c3ccccc3O)COC12` (centres unmarked) [Isosorbide-2-benzyl carbamate-5-salicylate], in the assay with BuChE (read-out: IC50 for BuChE), the half-inhibitory concentration (IC50) is less than 0.15 nM.

The record behind these values is paper PMC6273432, “Novel Selective Butyrylcholinesterase Inhibitors Incorporating Antioxidant Functionalities as Potential Bimodal Therapeutics for Alzheimer’s Disease” (Molecules, 2016).
